Assay results reported in PubChem BioAssay (NCI).
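The compound was tested at five concentrations on cells cultured in 96-well plates, with a 48-hour exposure period. At the GI50, growth is halved. TGI marks complete inhibition of growth.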

What was measured:
Assay in all cases: inhibition of tumour cell growth, NCI panel, 48 h
[1] = test system: PC-3 prostate
[2] = test system: KM12 colon
[3] = test system: TK-10 renal
[4] = test system: A549 NSCLC
[5] = test system: OVCAR-4 ovarian
[6] = test system: 786-0 renal
[7] = test system: SF-295 CNS
[8] = test system: OVCAR-5 ovarian
[9] = test system: HOP-92 NSCLC
[10] = test system: SN12C renal
[11] = test system: A498 renal
[12] = test system: EKVX NSCLC
[13] = test system: MOLT-4 leukemia
[14] = test system: U251 CNS
[15] = test system: DU-145 prostate
[16] = test system: SK-MEL-28 melanoma
[17] = test system: T-47D breast
[18] = test system: CAKI-1 renal
[19] = test system: HL-60(TB) leukemia
[20] = test system: HCT-15 colon
[21] = test system: RXF 393 renal
[22] = test system: UACC-257 melanoma
[23] = test system: MALME-3M melanoma
[24] = test system: UACC-62 melanoma
[25] = test system: NCI-H23 lung
[26] = test system: MDA-MB-231 breast
[27] = test system: MDA-MB-435
[28] = test system: MCF7 breast
[29] = test system: NCI/ADR-RES ovarian
[30] = test system: HCC-2998 colon
[31] = test system: BT-549 breast
[32] = test system: LOX IMVI melanoma
[33] = test system: ACHN renal
[34] = test system: OVCAR-8 ovarian
[35] = test system: SNB-75 CNS
[36] = test system: SF-539 CNS
[37] = test system: HS 578T breast
[38] = test system: NCI-H460 lung
[39] = test system: SK-MEL-5 melanoma
[40] = test system: SF-268 CNS
[41] = test system: SR leukemia
[42] = test system: IGROV1 ovarian
[43] = test system: OVCAR-3 ovarian
[44] = test system: SK-OV-3 ovarian
[45] = test system: HCT-116 colon
[46] = test system: RPMI-8226 leukemia
[47] = test system: SNB-19 CNS
[48] = test system: M14 melanoma
[49] = test system: NCI-H226 lung
[50] = test system: NCI-H522 lung
[51] = test system: HT29 colon
[52] = test system: SK-MEL-2 melanoma
[53] = test system: HOP-62 NSCLC
[54] = test system: K-562 leukemia
[55] = test system: SW-620 colon
[56] = test system: COLO 205 colon
[57] = test system: CCRF-CEM leukemia
[58] = test system: UO-31 renal

C(#Cc1ccccc1C#Cc1ccccn1)c1ccc(OCCCCCCOc2ccc(C#Cc3ccccc3C#Cc3ccccn3)cc2)cc1
GI50 [1]: 5.18 µM | TGI [1]: 14 µM | GI50 [2]: 1.65 µM | TGI [2]: 8.34 µM | GI50 [3]: 5.33 µM | TGI [3]: 15.8 µM | GI50 [4]: 5.72 µM | TGI [4]: 13.8 µM | GI50 [5]: 2.7 µM | TGI [5]: 11.5 µM | GI50 [6]: 5.55 µM | TGI [6]: 28.8 µM | GI50 [7]: 1.32 µM | TGI [7]: 5.08 µM | GI50 [8]: 5.93 µM | TGI [8]: 13.8 µM | GI50 [9]: 4.91 µM | TGI [9]: 12 µM | GI50 [10]: 2.35 µM | TGI [10]: 11.6 µM | GI50 [11]: 5.93 µM | TGI [11]: 12.1 µM | GI50 [12]: 5.09 µM | TGI [12]: 22.9 µM | GI50 [13]: 0.225 µM | TGI [13]: 5.41 µM | GI50 [14]: 4.55 µM | TGI [14]: 10.9 µM | GI50 [15]: 6.36 µM | TGI [15]: 13 µM | GI50 [16]: 6.18 µM | TGI [16]: 12.4 µM | GI50 [17]: 1.52 µM | TGI [17]: 14.1 µM | GI50 [18]: 5.05 µM | TGI [18]: 12 µM | GI50 [19]: 0.108 µM | TGI [19]: 1.44 µM | GI50 [20]: 1.76 µM | TGI [20]: 9.37 µM | GI50 [21]: 6.91 µM | TGI [21]: 13.6 µM | GI50 [22]: 5.92 µM | TGI [22]: 12.7 µM | GI50 [23]: 7.76 µM | TGI [23]: 16.3 µM | GI50 [24]: 0.35 µM | TGI [24]: 5.46 µM | GI50 [25]: 6.45 µM | TGI [25]: 16.2 µM | GI50 [26]: 2.47 µM | TGI [26]: 9.64 µM | GI50 [27]: 1.69 µM | TGI [27]: 9.71 µM | GI50 [28]: 1.62 µM | TGI [28]: 8.29 µM | GI50 [29]: 2.43 µM | TGI [29]: 18.3 µM | GI50 [30]: 6.83 µM | TGI [30]: 13.3 µM | GI50 [31]: 4.39 µM | TGI [31]: 12.1 µM | GI50 [32]: 0.229 µM | TGI [32]: 5.71 µM | GI50 [33]: 1.2 µM | TGI [33]: 7.95 µM | GI50 [34]: 4.16 µM | TGI [34]: 14.6 µM | GI50 [35]: 5.26 µM | TGI [35]: 13.8 µM | GI50 [36]: 1.76 µM | TGI [36]: 7.63 µM | GI50 [37]: 5.79 µM | TGI [37]: 15.7 µM | GI50 [38]: 1.62 µM | TGI [38]: 6.65 µM | GI50 [39]: 1.73 µM | TGI [39]: 7.26 µM | GI50 [40]: 2.52 µM | TGI [40]: 10.8 µM | GI50 [41]: 2.45 µM | TGI [41]: 19.4 µM | GI50 [42]: 5.63 µM | TGI [42]: 17.2 µM | GI50 [43]: 2.31 µM | TGI [43]: 9.16 µM | GI50 [44]: 7.87 µM | TGI [44]: 20.1 µM | GI50 [45]: 6.83 µM | TGI [45]: 15.9 µM | GI50 [46]: 0.387 µM | TGI [46]: 10.1 µM | GI50 [47]: 4.39 µM | TGI [47]: 11.4 µM | GI50 [48]: 7.47 µM | TGI [48]: 17.6 µM | GI50 [49]: 4.33 µM | TGI [49]: 13.3 µM | GI50 [50]: 2.55 µM | TGI [50]: 13.1 µM | GI50 [51]: 8.16 µM | TGI [51]: 14.9 µM | GI50 [52]: 1.87 µM | TGI [52]: 11.1 µM | GI50 [53]: 6.51 µM | TGI [53]: 14.6 µM | GI50 [54]: 1.81 µM | TGI [54]: 18.5 µM | GI50 [55]: 4.51 µM | TGI [55]: 10.6 µM | GI50 [56]: 8.35 µM | TGI [56]: 15.6 µM | GI50 [57]: 0.0276 µM | TGI [57]: 0.151 µM | GI50 [58]: 2.02 µM | TGI [58]: 21.4 µM

CC(=O)/C=C/c1ccc(N(C)Cc2ccc(C(C)(C)C)cc2)cc1
GI50 [1]: 97.2 µM | TGI [1]: 465 µM | GI50 [2]: 115 µM | TGI [2]: 317 µM | GI50 [3]: 348 µM | TGI [3]: 890 µM | GI50 [4]: 156 µM | TGI [4]: 788 µM | GI50 [5]: 125 µM | TGI [5]: 330 µM | GI50 [6]: 155 µM | TGI [6]: 338 µM | GI50 [7]: 162 µM | TGI [7]: 576 µM | GI50 [8]: 195 µM | TGI [8]: 490 µM | GI50 [9]: 129 µM | TGI [9]: 267 µM | GI50 [10]: 141 µM | TGI [10]: 300 µM | GI50 [11]: 124 µM | TGI [11]: 251 µM | GI50 [12]: 84.4 µM | TGI [12]: 392 µM | GI50 [13]: 116 µM | TGI [13]: 425 µM | GI50 [14]: 125 µM | TGI [14]: 268 µM | GI50 [15]: 147 µM | TGI [15]: 472 µM | GI50 [16]: 134 µM | TGI [16]: 279 µM | GI50 [17]: 47.8 µM | TGI [17]: 405 µM | GI50 [19]: 69.1 µM | TGI [19]: 277 µM | GI50 [20]: 89.7 µM | TGI [20]: 327 µM | GI50 [21]: 131 µM | TGI [21]: 272 µM | GI50 [22]: 143 µM | TGI [22]: 335 µM | GI50 [23]: 138 µM | TGI [23]: 284 µM | GI50 [24]: 113 µM | TGI [24]: 255 µM | GI50 [25]: 87.4 µM | TGI [25]: 550 µM | GI50 [26]: 122 µM | TGI [26]: 293 µM | GI50 [27]: 114 µM | TGI [27]: 322 µM | GI50 [28]: 45.5 µM | TGI [28]: 318 µM | GI50 [29]: 114 µM | TGI [29]: 271 µM | GI50 [30]: 149 µM | TGI [30]: 340 µM | GI50 [31]: 133 µM | TGI [31]: 277 µM | GI50 [32]: 78.2 µM | TGI [32]: 208 µM | GI50 [33]: 137 µM | TGI [33]: 271 µM | GI50 [34]: 148 µM | TGI [34]: 516 µM | GI50 [35]: 145 µM | TGI [35]: 345 µM | GI50 [36]: 161 µM | TGI [36]: 316 µM | GI50 [37]: 193 µM | TGI [37]: 568 µM | GI50 [38]: 144 µM | TGI [38]: 376 µM | GI50 [39]: 55.1 µM | TGI [39]: 184 µM | GI50 [40]: 143 µM | TGI [40]: 332 µM | GI50 [41]: 137 µM | TGI [41]: 499 µM | GI50 [42]: 241 µM | GI50 [43]: 126 µM | TGI [43]: 264 µM | GI50 [44]: 217 µM | TGI [44]: 709 µM | GI50 [45]: 80.6 µM | TGI [45]: 290 µM | GI50 [46]: 53.9 µM | TGI [46]: 237 µM | GI50 [47]: 218 µM | TGI [47]: 699 µM | GI50 [48]: 132 µM | TGI [48]: 321 µM | GI50 [49]: 149 µM | TGI [49]: 315 µM | GI50 [50]: 128 µM | TGI [50]: 310 µM | GI50 [51]: 58.4 µM | GI50 [52]: 164 µM | TGI [52]: 344 µM | GI50 [53]: 194 µM | TGI [53]: 550 µM | GI50 [55]: 156 µM | TGI [55]: 441 µM | GI50 [56]: 95.1 µM | TGI [56]: 275 µM | GI50 [57]: 164 µM | TGI [57]: 903 µM | GI50 [58]: 83.2 µM | TGI [58]: 212 µM
